Measured values from patent US20120190752A1, “EXO-S-MECAMYLAMINE METHOD, USE, AND COMPOUND FOR TREATMENT” (Targacept Inc., priority 2009, published 2012).

Test system: subjects with major depressive disorder (MDD) who were inadequate responders to citalopram
Test: QIDS-SR, Phase 2b add-on trial
Assay type: in vivo, human
Excerpt: The 30 item Inventory of Depressive Symptomatology (IDS) (Rush et al. 1986, 1996) and the 16 item Quick Inventory of Depressive Symptomatology (QIDS) (Rush et al. 2003) are designed to assess the severity of depressive symptoms. Both the IDS and the […] are available in the clinician (IDS-C30 and QIDS-C16) and self-rated versions (IDS-SR30 and QIDS-SR16). The IDS and QIDS assess all the criterion symptom domains designated by the American Psychiatry Association Diagnostic and Statistical Manual of Mental Disorders—4th edition (DSM-IV) (APA 1994) to diagnose a major depressive episode. These assessments can be used to screen for depression, although they have been used predominantly as measures of symptom severity. The seven day period prior to assessment is the usual time frame for assessing symptom severity. The […] and QIDS-SR16 cover only the nine diagnostic symptom domains used to characterize a major depressive episode, without items to assess atypical, melancholic or their commonly associated symptoms. All 16 items on the QIDS are included within the IDS. The IDS-C30 and […] include the criterion symptoms, as well as commonly associated symptoms (e.g. anxiety, irritability) and items relevant to melancholic, or atypical symptom features. Both versions are sensitive to change, with medications, psychotherapy, or somatic treatments, making them useful for both research and clinical purposes. The psychometric properties of both the IDS and QIDS, have both been established in various study samples. See Rush A J, Trivedi M H, Ibrahim H M, et al., The 16-item Quick Inventory of Depressive Symptomatology (QIDS), Clinician Rating (QIDS-C), and Self-Report (QIDS-SR): a psychometric evaluation in patients with chronic major depression. Biol Psychiatry.; 54: 573-583 (2003).
In more detail, a multi-center double-blind, randomized, placebo-controlled, parallel group, flexible dose titration study of TC-5214 as adjunctive therapy in subjects with major depressive disorder (MDD) who were inadequate responders to citalopram was conducted in centers in the US and India. The study consisted of a screening period, baseline/washout period, open-label phase, double-blind phase, and a follow-up visit. Subject participation in the study could continue for up to 16 weeks of treatment. Following a washout period of up to 28 days for other antidepressants, subjects with MDD and a MADRS total score >/=28 and a Clinical Global Impression-Severity (CGI-S) score >/=4 were enrolled on Day 1 into an open-label citalopram-only phase of the study. This phase lasted 8 weeks, with citalopram (CIT) dose increased from a once-daily dose of 20 mg (Day 1 through Week 4) to 40 mg (Week 4 through Week 8). A total of 579 subjects entered the open-label citalopram phase. At Week 8, subjects who tolerated 40 mg CIT, but whose MADRS score was reduced <50% from baseline and no lower than 17, and CGI-S≧4, were considered inadequate responders. These subjects (n=270) were randomized in a double-blind fashion to receive either placebo or TC-5214-23 as add-on therapy to continued CIT. The double-blind phase of the study also lasted 8 weeks (Week 8 to Week 16). Study drug, TC-5214-23 or placebo, was started at 2 mg daily (1 mg twice per day [BID] dosing), added on to continuing CIT (40 mg PO qd). After 2 weeks of treatment, the dose of TC-5214 could be increased to 4 mg (2 mg BID) or continued unchanged, with up-titration based upon good tolerability and inadequate therapeutic response. After a further 2 weeks, the dose of TC-5214 could be increased again to 8 mg (4 mg BID) if judged appropriate by the investigator, based upon good tolerability and inadequate therapeutic response. At any time during the double-blind phase of the study, placebo or TC-5214-23 could be reduced to the previous dose level following the emergence of unacceptable adverse events (AEs). […] At this follow-up, any signs or symptoms of relapse were evaluated. […]

[1] = ITT N=265, week of double-blind treatment
[2] = ITT and PP, at every assessment week, result in words
[3] = ITT, Double Blind Week 18 (Follow-up)
[4] = ITT, Double Blind Week 18 LOCF (Follow-up), change from Week 16
[5] = PP, Double Blind Week 16 LOCF (change from Week 8)
[6] = PP, Double Blind Week 18 (Follow-up)
[7] = PP, Double Blind Week 18 LOCF (Follow-up), change from Week 16

CNC1(C)C2CCC(C2)C1(C)C (stereo in doubt) [TC-5214, (S)—N,2,3,3-tetramethylnorbornan-2-amine]
onset of separation from placebo, subject rated remission QIDS-SR≦5 (FIG. 2) [1]: ≤ 2 week
onset of separation from placebo, subject rated response QIDS-SR≧50% (FIG. 3) [1]: ≤ 1 week
QIDS-SR score change from baseline compared with placebo (ITT and PP populations, result in words): statistically significant decreases (improvements)
QIDS remission proportion compared with placebo [2]: higher proportion of subjects with remission
QIDS responders (reduction from baseline ≧50%) proportion compared with placebo [2]: higher proportion of responders
QIDS reduction from baseline ≧50%: Subjects with Response (number) (ITT, Double Blind Week 10): 29
QIDS reduction from baseline ≧50%: Subjects with Response (percentage) (ITT, Double Blind Week 10): 22%
QIDS reduction from baseline ≧50%: Subjects without Response (number) (ITT, Double Blind Week 10): 104
QIDS reduction from baseline ≧50%: Subjects without Response (percentage) (ITT, Double Blind Week 10): 78%
QIDS score ≦5: Subjects with Remission (number) (ITT, Double Blind Week 10): 19
QIDS score ≦5: Subjects with Remission (percentage) (ITT, Double Blind Week 10): (14%)
QIDS score ≦5: Subjects without Remission (number) (ITT, Double Blind Week 10): 114
QIDS score ≦5: Subjects without Remission (percentage) (ITT, Double Blind Week 10): (86%)
QIDS reduction from baseline ≧50%: Subjects with Response (number) (ITT, Double Blind Week 12): 44
QIDS reduction from baseline ≧50%: Subjects with Response (percentage) (ITT, Double Blind Week 12): 33%
QIDS reduction from baseline ≧50%: Subjects without Response (number) (ITT, Double Blind Week 12): 89
QIDS reduction from baseline ≧50%: Subjects without Response (percentage) (ITT, Double Blind Week 12): 67%
QIDS score ≦5: Subjects with Remission (number) (ITT, Double Blind Week 12): 25
QIDS score ≦5: Subjects with Remission (percentage) (ITT, Double Blind Week 12): (19%)
QIDS score ≦5: Subjects without Remission (number) (ITT, Double Blind Week 12): 108
QIDS score ≦5: Subjects without Remission (percentage) (ITT, Double Blind Week 12): (81%)
QIDS reduction from baseline ≧50%: Subjects with Response (number) (ITT, Double Blind Week 14): 67
QIDS reduction from baseline ≧50%: Subjects with Response (percentage) (ITT, Double Blind Week 14): 50%
QIDS reduction from baseline ≧50%: Subjects without Response (number) (ITT, Double Blind Week 14): 66
QIDS reduction from baseline ≧50%: Subjects without Response (percentage) (ITT, Double Blind Week 14): 50%
QIDS score ≦5: Subjects with Remission (number) (ITT, Double Blind Week 14): 45
QIDS score ≦5: Subjects with Remission (percentage) (ITT, Double Blind Week 14): (34%)
QIDS score ≦5: Subjects without Remission (number) (ITT, Double Blind Week 14): 88
QIDS score ≦5: Subjects without Remission (percentage) (ITT, Double Blind Week 14): (66%)
QIDS reduction from baseline ≧50%: Subjects with Response (number) (ITT, Double Blind Week 16): 88
QIDS reduction from baseline ≧50%: Subjects with Response (percentage) (ITT, Double Blind Week 16): 66%
QIDS reduction from baseline ≧50%: Subjects without Response (number) (ITT, Double Blind Week 16): 45
QIDS reduction from baseline ≧50%: Subjects without Response (percentage) (ITT, Double Blind Week 16): 34%
QIDS score ≦5: Subjects with Remission (number) (ITT, Double Blind Week 16): 60
QIDS score ≦5: Subjects with Remission (percentage) (ITT, Double Blind Week 16): (45%)
QIDS score ≦5: Subjects without Remission (number) (ITT, Double Blind Week 16): 73
QIDS score ≦5: Subjects without Remission (percentage) (ITT, Double Blind Week 16): (55%)
QIDS-SR Mean Difference between TC-5214 and Placebo (ITT, Double Blind Week 16 LOCF (change from Week 8)): 3.79
QIDS reduction from baseline ≧50%: Subjects with Response (number) [3]: 92
QIDS reduction from baseline ≧50%: Subjects with Response (percentage) [3]: 69%
QIDS reduction from baseline ≧50%: Subjects without Response (number) [3]: 41
QIDS reduction from baseline ≧50%: Subjects without Response (percentage) [3]: 31%
QIDS score ≦5: Subjects with Remission (number) [3]: 75
QIDS score ≦5: Subjects with Remission (percentage) [3]: (56%)
QIDS score ≦5: Subjects without Remission (number) [3]: 58
QIDS score ≦5: Subjects without Remission (percentage) [3]: (44%)
QIDS-SR Adjusted Mean change [4]: −0.52
QIDS-SR Mean Difference between TC-5214 and Placebo [4]: 0.58
QIDS-SR Difference vs Placebo + CIT (ITT, Week 8 to Week 16 LOCF): −3.76
QIDS-SR Adj. Mean change (ITT, change from Week 8 (double-blind baseline) to Week 16 LOCF, add-on to citalopram): −8.07
QIDS-SR score change at Week 18 compared with placebo (PP population, Week 18, result in words): statistically significant decrease
QIDS reduction from baseline ≧50%: Subjects with Response (number) (PP, Double Blind Week 10): 25
QIDS reduction from baseline ≧50%: Subjects with Response (percentage) (PP, Double Blind Week 10): 22%
QIDS reduction from baseline ≧50%: Subjects without Response (number) (PP, Double Blind Week 10): 88
QIDS reduction from baseline ≧50%: Subjects without Response (percentage) (PP, Double Blind Week 10): 78%
QIDS score ≦5: Subjects with Remission (number) (PP, Double Blind Week 10): 17
QIDS score ≦5: Subjects with Remission (percentage) (PP, Double Blind Week 10): 15%
QIDS score ≦5: Subjects without Remission (number) (PP, Double Blind Week 10): 96
QIDS score ≦5: Subjects without Remission (percentage) (PP, Double Blind Week 10): 85%
QIDS reduction from baseline ≧50%: Subjects with Response (number) (PP, Double Blind Week 12): 40
QIDS reduction from baseline ≧50%: Subjects with Response (percentage) (PP, Double Blind Week 12): 35%
QIDS reduction from baseline ≧50%: Subjects without Response (number) (PP, Double Blind Week 12): 73
QIDS reduction from baseline ≧50%: Subjects without Response (percentage) (PP, Double Blind Week 12): 65%
QIDS score ≦5: Subjects with Remission (number) (PP, Double Blind Week 12): 23
QIDS score ≦5: Subjects with Remission (percentage) (PP, Double Blind Week 12): 20%
QIDS score ≦5: Subjects without Remission (number) (PP, Double Blind Week 12): 90
QIDS score ≦5: Subjects without Remission (percentage) (PP, Double Blind Week 12): 80%
QIDS reduction from baseline ≧50%: Subjects with Response (number) (PP, Double Blind Week 14): 59
QIDS reduction from baseline ≧50%: Subjects with Response (percentage) (PP, Double Blind Week 14): 52%
QIDS reduction from baseline ≧50%: Subjects without Response (number) (PP, Double Blind Week 14): 54
QIDS reduction from baseline ≧50%: Subjects without Response (percentage) (PP, Double Blind Week 14): 48%
QIDS score ≦5: Subjects with Remission (number) (PP, Double Blind Week 14): 39
QIDS score ≦5: Subjects with Remission (percentage) (PP, Double Blind Week 14): 35%
QIDS score ≦5: Subjects without Remission (number) (PP, Double Blind Week 14): 74
QIDS score ≦5: Subjects without Remission (percentage) (PP, Double Blind Week 14): 65%
QIDS reduction from baseline ≧50%: Subjects with Response (number) (PP, Double Blind Week 16): 80
QIDS reduction from baseline ≧50%: Subjects with Response (percentage) (PP, Double Blind Week 16): 71%
QIDS reduction from baseline ≧50%: Subjects without Response (number) (PP, Double Blind Week 16): 33
QIDS reduction from baseline ≧50%: Subjects without Response (percentage) (PP, Double Blind Week 16): 29%
QIDS score ≦5: Subjects with Remission (number) (PP, Double Blind Week 16): 55
QIDS score ≦5: Subjects with Remission (percentage) (PP, Double Blind Week 16): 49%
QIDS score ≦5: Subjects without Remission (number) (PP, Double Blind Week 16): 58
QIDS score ≦5: Subjects without Remission (percentage) (PP, Double Blind Week 16): 51%
QIDS-SR Adjusted Mean change [5]: −8.60
QIDS-SR Mean Difference between TC-5214 and Placebo [5]: 3.90
QIDS reduction from baseline ≧50%: Subjects with Response (number) [6]: 84
QIDS reduction from baseline ≧50%: Subjects with Response (percentage) [6]: 74%
QIDS reduction from baseline ≧50%: Subjects without Response (number) [6]: 29
QIDS reduction from baseline ≧50%: Subjects without Response (percentage) [6]: 26%
QIDS score ≦5: Subjects with Remission (number) [6]: 69
QIDS score ≦5: Subjects with Remission (percentage) [6]: 61%
QIDS score ≦5: Subjects without Remission (number) [6]: 44
QIDS score ≦5: Subjects without Remission (percentage) [6]: 39%
QIDS-SR Adjusted Mean change [7]: −0.65
QIDS-SR Mean Difference between TC-5214 and Placebo [7]: 0.84
